In patent US11932658B2 (BRISTOL-MYERS SQUIBB COMPANY, priority 2016, dated 2024):

What follows are compounds tested against T1, PAR4 (Homo sapiens, UniProt Q96RI0) (assay: PAR4 FLIPR assay (antagonism of agonist peptide-induced calcium mobilization)).
T1 construct: expressed in transfected cells; host or cells: HEK293 PAR4 Clone 1.2A (BMS Arctic ID 383940)
T1 sequence (Q96RI0 18-385): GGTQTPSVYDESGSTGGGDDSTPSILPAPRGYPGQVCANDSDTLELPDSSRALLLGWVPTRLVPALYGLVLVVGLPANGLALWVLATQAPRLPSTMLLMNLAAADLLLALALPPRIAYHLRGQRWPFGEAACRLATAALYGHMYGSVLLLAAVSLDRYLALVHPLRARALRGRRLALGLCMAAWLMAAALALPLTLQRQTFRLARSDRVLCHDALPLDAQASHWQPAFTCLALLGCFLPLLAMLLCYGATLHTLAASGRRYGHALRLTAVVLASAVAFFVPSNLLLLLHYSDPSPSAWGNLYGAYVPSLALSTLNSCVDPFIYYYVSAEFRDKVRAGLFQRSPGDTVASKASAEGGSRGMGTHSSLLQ
Type: cell-based
Outline: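 Antagonism was taken as block of calcium mobilization evoked by the agonist peptide H-Ala-Phe(4-F)-Pro-Gly-Trp-Leu-Val-Lys-Asn-[…]-NH2, added after 30 min room-temperature compound preincubation in dye-loaded PAR4-transfected HEK293 cells (endogenous PAR1). Fluorescence was read on FDSS, with compound addition alone used as the agonist counter-screen; values come from 11-point concentration-response curves.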

Q: Which IC50 does the source give for COc1cnc2c(-c3nc4c(F)cc5c(c4s3)OC[C@H](COC(=O)Nc3ccc(C)nc3)O5)cc(C)cc2n1 [Example 76, (R)-(4-fluoro-2-(2-methoxy-7-methylquinoxalin-5-yl)-7,8-dihydro-[1,4]dioxino[2′,3′:3,4]benzo[1,2-d]thiazol-7-yl)methyl (6-methylpyridin-3-yl)carbamate] here?
A: The IC50 was 2.7 nM.

Q: COc1cnc2c(-c3nc4c(C)cc5c(c4s3)OCC(COC(=O)Nc3cncc(C(N)=O)c3)O5)cc(C)cc2n1 (stereo not shown) [Example 77, (2-(2-methoxy-7-methylquinoxalin-5-yl)-4-methyl-7,8-dihydro-[1,4]dioxino [2′,3′:3,4]benzo[1,2-d]thiazol-7-yl)methyl (5-carbamoylpyridin-3-yl)carbamate] was tested. Which IC50 did it give?
A: The IC50 was 15 nM.

Q: COc1cnc2c(-c3nc4c(C)cc5c(c4s3)OCC(COC(=O)Nc3ccc4c(c3)C(=O)NCC4)O5)cc(C)cc2n1 (stereo not shown) [Example 78, (2-(2-methoxy-7-methylquinoxalin-5-yl)-4-methyl-7,8-dihydro-[1,4]dioxino[2′,3′:3,4]benzo[1,2-d]thiazol-7-yl)methyl (1-oxo-1,2,3,4-tetrahydroisoquinolin-7-yl)carbamate] was tested. Which IC50 did it give?
A: The IC50 was 8.6 nM.

Q: Which IC50 does the source give for COc1cnc2c(-c3nc4c(C)cc5c(c4s3)OCC(COC(=O)Nc3cnc(C)nc3)O5)cc(C)cc2n1 (stereo not shown) [Example 79, (2-(2-methoxy-7-methylquinoxalin-5-yl)-4-methyl-7,8-dihydro-[1,4]dioxino[2′,3′:3,4]benzo[1,2-d]thiazol-7-yl)methyl (2-methylpyrimidin-5-yl)carbamate] here?
A: Its IC50 is 29 nM.

Q: For COc1cnc2c(-c3nc4c(C(F)F)cc5c(c4s3)OC[C@H](COC(=O)Nc3ccc(C)nc3)O5)cc(C)cc2n1 [Example 80, (R)-(4-(difluoromethyl)-2-(2-methoxy-7-methylquinoxalin-5-yl)-7,8-dihydro-[1,4]dioxino[2′,3′:3,4]benzo[1,2-d]thiazol-7-yl)methyl (6-methylpyridin-3-yl)carbamate], which IC50 is on record?
A: The IC50 was 33 nM.

Q: For COc1ccc(NC(=O)OC[C@H]2COc3c(cc(C(F)F)c4nc(-c5cc(C)cc6nc(OC)cnc56)sc34)O2)cn1 [Example 81, (R)-(4-(difluoromethyl)-2-(2-methoxy-7-methylquinoxalin-5-yl)-7,8-dihydro-[1,4]dioxino[2′,3′:3,4]benzo[1,2-d]thiazol-7-yl)methyl (6-methoxypyridin-3-yl)carbamate], which IC50 is on record?
A: Its IC50 is 39 nM.

Q: COc1cnc2c(-c3nc4c(C)cc5c(c4s3)OCC(COC(=O)Nc3ccc4ocnc4c3)O5)cc(C)cc2n1 (stereo not shown) [Example 82, (2-(2-methoxy-7-methylquinoxalin-5-yl)-4-methyl-7,8-dihydro-[1,4]dioxino[2′,3′:3,4]benzo[1,2-d]thiazol-7-yl)methyl benzo[d]oxazol-5-ylcarbamate] was tested. Which IC50 did it give?
A: Its IC50 is 55 nM.

Q: Which IC50 does the source give for COc1cnc2c(-c3nc4c(F)cc5c(c4s3)OC[C@H](COC(=O)Nc3cccnc3)O5)cc(CO)cc2n1 [Example 83, (R)-(4-fluoro-2-(7-(hydroxymethyl)-2-methoxyquinoxalin-5-yl)-7,8-dihydro-[1,4]dioxino [2′,3′:3,4]benzo[1,2-d]thiazol-7-yl)methyl pyridin-3-ylcarbamate] here?
A: Its IC50 is 29 nM.

Q: With COc1cnc2c(-c3nc4c(C)cc5c(c4s3)OC[C@H](COC(=O)Nc3ccnc(C)c3)O5)cc(C(F)F)cc2n1 [Example 84, (R)-(2-(7-(difluoromethyl)-2-methoxyquinoxalin-5-yl)-4-methyl-7,8-dihydro-[1,4]dioxino[2′,3′:3,4]benzo[1,2-d]thiazol-7-yl)methyl (2-methylpyridin-4-yl)carbamate] as the compound, how does the IC50 read?
A: Its IC50 is 33 nM.

Q: With COc1cnc2c(-c3nc4c(F)cc5c(c4s3)OC[C@H](COC(=O)Nc3ccnc(C)c3)O5)cc(CO)cc2n1 [Example 85, (R)-(4-fluoro-2-(7-(hydroxymethyl)-2-methoxyquinoxalin-5-yl)-7,8-dihydro-[1,4]dioxino [2′,3′:3,4]benzo[1,2-d]thiazol-7-yl)methyl (2-methylpyridin-4-yl)carbamate] as the compound, how does the IC50 read?
A: The IC50 was 15 nM.

Q: How did the IC50 turn out when C=Cc1cc(-c2nc3c(C)cc4c(c3s2)OCC(COC(=O)Nc2ccc(OC)nc2)O4)c2ncc(OC)nc2c1 (stereo not shown) [Example 86, (2-(2-methoxy-7-vinylquinoxalin-5-yl)-4-methyl-7,8-dihydro-[1,4]dioxino[2′,3′:3,4]benzo [1,2-d]thiazol-7-yl)methyl (6-methoxypyridin-3-yl)carbamate] was run?
A: The IC50 was 6.3 nM.

Q: With COc1ccc(NC(=O)OCC2COc3c(cc(C)c4nc(-c5cc(CO)cc6nc(OC)cnc56)sc34)O2)cn1 (stereo not shown) [Example 87, (2-(7-(hydroxymethyl)-2-methoxyquinoxalin-5-yl)-4-methyl-7,8-dihydro-[1,4]dioxino[2′,3′:3,4]benzo[1,2-d]thiazol-7-yl)methyl (6-methoxypyridin-3-yl)carbamate] as the compound, how does the IC50 read?
A: Its IC50 is 2 nM.

Q: How did the IC50 turn out when COc1ccc(NC(=O)OCC2COc3c(cc(C)c4nc(-c5cc(C(C)O)cc6nc(OC)cnc56)sc34)O2)cn1 (stereo not shown) [Example 88, (2-(7-(1-hydroxyethyl)-2-methoxyquinoxalin-5-yl)-4-methyl-7,8-dihydro-[1,4]dioxino[2′,3′:3,4]benzo[1,2-d]thiazol-7-yl)methyl (6-methoxypyridin-3-yl)carbamate] was run?
A: The IC50 was 4.4 nM.

Q: C=Cc1cc(-c2nc3c(C)cc4c(c3s2)OCC(COC(=O)Nc2cccnc2)O4)c2ncc(OC)nc2c1 (stereo not shown) [Example 89, (2-(2-methoxy-7-vinylquinoxalin-5-yl)-4-methyl-7,8-dihydro-[1,4]dioxino[2′,3′:3,4]benzo [1,2-d]thiazol-7-yl)methyl pyridin-3-ylcarbamate] was tested. Which IC50 did it give?
A: The IC50 was 20 nM.

Q: How did the IC50 turn out when COc1cnc2c(-c3nc4c(C)cc5c(c4s3)OCC(COC(=O)Nc3cccnc3)O5)cc(CO)cc2n1 (stereo not shown) [Example 90, (2-(7-(hydroxymethyl)-2-methoxyquinoxalin-5-yl)-4-methyl-7,8-dihydro-[1,4]dioxino[2′,3′:3,4]benzo[1,2-d]thiazol-7-yl)methyl pyridin-3-ylcarbamate] was run?
A: Its IC50 is 2.7 nM.

Q: How did the IC50 turn out when COc1cnc2c(-c3nc4c(C)cc5c(c4s3)OC[C@H](COC(=O)Nc3ccc(C)nc3)O5)cc(C#N)cc2n1 [Example 91, (R)-(2-(7-cyano-2-methoxyquinoxalin-5-yl)-4-methyl-7,8-dihydro-[1,4]dioxino[2′,3′:3,4]benzo[1,2-d]thiazol-7-yl)methyl (6-methylpyridin-3-yl)carbamate] was run?
A: The IC50 was 1.1 nM.

Q: COc1cnc2c(-c3nc4c(C)cc5c(c4s3)OC[C@H](COC(=O)Nc3ccnc(C)c3)O5)cc(C#N)cc2n1 [Example 92, (R)-(2-(7-cyano-2-methoxyquinoxalin-5-yl)-4-methyl-7,8-dihydro-[1,4]dioxino[2′,3′:3,4]benzo[1,2-d]thiazol-7-yl)methyl (2-methylpyridin-4-yl)carbamate] was tested. Which IC50 did it give?
A: Its IC50 is 1.4 nM.

Q: How did the IC50 turn out when COc1cnc2c(-c3nc4c(C)cc5c(c4s3)OC[C@H](COC(=O)Nc3cccnc3)O5)cc(C#N)cc2n1 [Example 93, (R)-(2-(7-cyano-2-methoxyquinoxalin-5-yl)-4-methyl-7,8-dihydro-[1,4]dioxino[2′,3′:3,4]benzo[1,2-d]thiazol-7-yl)methyl pyridin-3-ylcarbamate] was run?
A: The IC50 was 20 nM.

Q: With COc1ccc(NC(=O)OC[C@H]2COc3c(cc(C)c4nc(-c5cc(C#N)cc6nc(OC)cnc56)sc34)O2)cn1 [Example 94, (R)-(2-(7-cyano-2-methoxyquinoxalin-5-yl)-4-methyl-7,8-dihydro-[1,4]dioxino[2′,3′:3,4]benzo[1,2-d]thiazol-7-yl)methyl (6-methoxypyridin-3-yl)carbamate] as the compound, how does the IC50 read?
A: The IC50 was 29 nM.
